Consider seven substances from patent publication US20160084841A1, “Method for Predicting Clinical Effect of Immunotherapy” (INTERNATIONAL INSTITUTE OF CANCER IMMUNOLOGY, INC., priority 2013, published 2016).

Assay [1] deals with anti-WT1235 peptide IgG antibody. Description: ELISA using variant WT1 antigen peptide as immobilized antigen to assay anti-WT1235 peptide IgG antibody. The class given is binding, human. Conditions: serum of thymic carcinoma patient given WT1235 peptide; increase in titer detected; FIG. 19. On the procedure:
WK235-243 (SEQ ID NO: 62) and WT237-243 (SEQ ID NO: 63) were synthesized by GL Biochem (Shanghai) Corporation Ltd. WT1-frg2 (SEQ ID NO: 61) was prepared in the same way as in the aforementioned WT1-frg3 (SEQ ID NO: 57).
The measurement of the antibody titer using WT1-frg2 (SEQ ID NO: 61) was performed in the same way as in the aforementioned WT1-frg3 (SEQ ID NO: 57). The measurement of the antibody titer using WK235-243 (SEQ ID NO: 62) or WT237-243 (SEQ ID NO: 63) was performed in the same way as in the aforementioned WT332-347 (SEQ ID NO: 58), etc.
On the technique in general: ELISA stands for enzyme-linked immunosorbent assay.

Assay [2] concerns malignant thymic carcinoma patient. Briefly: Anti-WT1332 / anti-WT1235 IgG antibody titer (ELISA) in serum of a patient given WT1235 peptide vaccine. The class given is in vivo, human. From the text: (§1) From one malignant glioblastoma patient given WT1332 peptide vaccine (SEQ ID NO: 6), a serum sample was obtained before the start of administration of the vaccine, at 4 weeks after the start of administration, and at 1 year and 2 months after the start of administration. From one malignant thymic carcinoma patient given WT1235 peptide vaccine (WT1-CTL peptide (modified mp235-243) (SEQ ID NO: 3)) alone, a serum sample was obtained as a negative control in the same way as above. Each serum sample was stored at −20° C. until assay.
The GST-WT1 frag1 protein solution (10 ng/μL) was added at 100 μL/well to a 96-well plate for ELISA. The plate was left overnight at 37° C. to immobilize the antigen thereon. After washing with 0.05% TBST, blocking was performed by shaking at room temperature for 2 hours using a blocking buffer (1% gelatin/0.05% TBST). Then, the serum diluted 100-fold with 0.05% TBST was added thereto at 100 μL/well and reacted overnight at 4° C. The plate was reacted with a peroxidase-labeled goat anti-human IgG antibody (Santa Cruz Biotechnology, Inc.) as a secondary antibody at room temperature for 2 hours. Then, a color was developed using a TMB kit (KPL, Kirkegaard & Perry Laboratories, Inc.). The reaction was terminated with 1 N HCl, and the absorbance at 450 nm was then measured using a microplate reader (CORONA […] MTP-32). […]

The test system of assay [3] is recurrent malignant glioblastoma (GBM) patients. Briefly: Anti-WT1-235 peptide IgG antibody titer (ELISA) in serum of GBM patients given WT1235 peptide vaccine. The class given is in vivo, human. Conditions: 2 months and 3 months after the start of administration compared with before, ELISA antigen WT1-235 peptide, FIG. 1. On the procedure: 1-1 WT1 peptide immunotherapy was carried out in 72 GBM patients using WT1235 peptide (WT1-CTL peptide (modified mp235-243) (SEQ ID NO: 3)) as a WT1 peptide vaccine. […]
To a 96-well reaction plate supplied with Peptide Coating Kit (Takara Bio Inc.) having amino groups attached to the bottom surface of the wells, a solution (4 μg/mL) of the WT1-235 peptide dissolved in a reaction buffer supplied with Peptide Coating Kit was added at 50 μL/well. […] The reaction was terminated with 1 N HCl, and the absorbance at 450 nm was then measured using a microplate reader (CORONA […] MTP-310Lab).
The comparison between two groups was conducted using the Mann-Whitney test. […] The anti-WT1 antigen peptide antibody titer was measured using the serum negative for the anti-WT1 antigen peptide antibody (patient's serum before the start of WT1 peptide immunotherapy) and the average value plus twice the standard deviation=0.045. […]

In assay [4] the test system is anti-WT1332 peptide IgG antibody. Briefly: ELISA using variant WT1 antigen peptide as immobilized antigen to assay anti-WT1332 peptide IgG antibody. Conditions: serum diluted 100-fold; titer increased in WT1332-immunized patient, not in unimmunized patient; FIG. 18. The class given is binding, human. The procedure: A vector expressing WT1-frg3 (SEQ ID NO: 57) as a GST-tagged protein was constructed using a pGEX-5X-3 vector (GE Healthcare Japan Corp.). The prepared vector was transferred to competent cells DH5α by heat shock. The vector-transferred E. coli was cultured. At the point in time when the OD600 value became 0.4 to 0.6, isopropyl-β-D-thiogalactoside (IPTG) was added at a final concentration of 1 mM to the medium to induce protein expression. The cells were further cultured for 3 hours. The bacterial cells were collected by centrifugation and then lysed in an SDS sample buffer (0.125 M Tris-HCl, 0.1 M DTT, 4% SDS, 10% sucrose, and bromophenol blue, pH 6.8). This lysate was fractionated on the basis of molecular weights by SDS-PAGE using a disc-type electrophoresis apparatus NA-1800 (Nihon Eido Corp.). A portion of each fraction thus collected by SDS-PAGE was stained with CBB, and a fraction containing WT1 was recovered. The purified protein was dissolved in an immobilizing buffer for ELISA (10 mM NaCO3, 30 mM NaHCO3, and 0.02% NaN3, pH 9.6) and used as an antigen for ELISA.
The GST-WT1 frag1 protein solution (10 ng/μL) was added at 100 μL/well to a 96-well plate for ELISA. The plate was left overnight at 37° C. to immobilize the antigen thereon. After washing with 0.05% TBST, blocking was performed by shaking at room temperature for 2 hours using a blocking buffer (1% gelatin/0.05% TBST). Then, the serum diluted 100-fold with 0.05% TBST was added thereto at 100 μL/well and reacted overnight at 4° C. […] The reaction was terminated with 1 N HCl, and the absorbance at 450 nm was then measured using a microplate reader (CORONA […] MTP-32).
(§2) To a 96-well reaction plate supplied with Peptide Coating Kit (Takara Bio Inc.) having amino groups (—NH2) attached to the bottom surface of the wells, a solution (4 μg/mL) of the WT1 peptide dissolved in a reaction buffer supplied with Peptide Coating Kit was added at 50 μL/well. […] The reaction was terminated with 1 N HCl, and the absorbance at 450 nm was then measured using a microplate reader (CORONA […] MTP-310Lab).

The subject of assay [5] is malignant glioblastoma patient. Description: Anti-WT1332 IgG antibody titer (ELISA) in serum of a patient given WT1332 peptide vaccine. The class given is in vivo, human. Conditions: one patient immunized with WT1332 peptide, FIG. 18.
Excerpt: as §1
[…] The plate was left overnight at 37° C. to immobilize the antigen thereon. After washing with 0.05% TBST, blocking was performed by shaking at room temperature for 2 hours using a blocking buffer (1% gelatin/0.05% TBST). […] The reaction was terminated with 1 N HCl, and the absorbance at 450 nm was then measured using a microplate reader (CORONA […] MTP-32).
as §2

For CMTWNQMNK [WK235-243], the “ability as ELISA antigen to measure anti-WT1235 IgG antibody level in patient's serum” value in assay [1] is “could measure an anti-WT1235 IgG antibody level in patient's serum”.

On to “CYTWNQMNL (Montanide ISA51 emulsion) [WT1235 peptide vaccine, emulsion with Montanide ISA51]”, for which, in assay [2] (negative control: one patient immunized with WT1235 peptide alone (unimmunized with WT1332 peptide), ELISA antigen WT1-frg3), the “anti-WT1332 IgG antibody titer after immunization” value is reported as “not increased”. For the same substance, the “anti-WT1235 IgG antibody titer” value in assay [2] (one thymic carcinoma patient, serum at 4 weeks and 7 months after start of administration, ELISA antigen WT1-frg2, FIG. 19) was “increase in anti-WT1235 IgG antibody titer was detected”. Besides, the “anti-WT1-235 peptide IgG antibody titer after the start of administration” value in assay [3] is given as “significantly increased”.

With KRYFKLSHLQMHSRKH [WT332-347], the “ability as ELISA antigen to measure anti-WT1332 IgG antibody level in patient's serum” value in assay [4] was “could measure an anti-WT1332 IgG antibody level in patient's serum”.

For the substance TWNQMNL [WT237-243], the “ability as ELISA antigen to measure anti-WT1235 IgG antibody level in patient's serum” value in assay [1] was “could measure an anti-WT1235 IgG antibody level in patient's serum”.

As for KRYFKLSHLQMHSRKH [WT1332 peptide], the “anti-WT1332 IgG antibody titer after immunization” value was “increased” in assay [5] (ELISA antigen WT1-frg3) and “increased” in assay [5] (ELISA antigen WT332-347, WT334-342 or WT332-338).

With YFKLSHLQM [WT334-342], the “ability as ELISA antigen to measure anti-WT1332 IgG antibody level in patient's serum” value in assay [4] is recorded as “could measure an anti-WT1332 IgG antibody level in patient's serum”.

KRYFKLS [WT332-338]: in assay [4], the “ability as ELISA antigen to measure anti-WT1332 IgG antibody level in patient's serum” value was “could measure an anti-WT1332 IgG antibody level in patient's serum”.
